Reference: publication PMC5610309, “In vivo target exploration of apidaecin based on Acquired Resistance induced by Gene Overexpression (ARGO assay)” (Scientific Reports, 2017)
Where no end group is shown, it is not given here. [ ]: non-standard residue; d: D form.

Assays:
[1] = tested on: enoyl-ACP reductase (FabI); assay: ARGO assay, positive control, FabI-overexpressing E. coli; assay type: cell-based, Escherichia coli; conditions: 250 nM triclosan; increasing IPTG (Fig. S2)
Protocol: IPTG Concentration / μM IPTG Concentartion / μM
Figure S2. Acquired resistance assay induced by overexpression of target proteins. A:
concentration. Black line: no triclosan (OD Tc(-)). Gray line: 250 nM triclosan (OD Tc(+)).
overexpression. […] Black line: no
trimethoprim. Gray line: 125 μM trimethoprim. D: The degree of resistance against

[2] = tested on: dihydrofolate reductase (FolA); conditions: 125 μM trimethoprim; increasing IPTG (Fig. S2)
Protocol: (§4) The recombinant E. coli strain JM109 harboring pCA24N derivatives were grown on 2 mL LB medium containing 30 µg/mL chloramphenicol in a test tube, with reciprocal shaking at 175 rpm at 37 °C for 18 h. A total of 80 μL culture medium was transferred into fresh 2 mL LB medium containing 30 µg/mL chloramphenicol and different concentrations of IPTG (see Supplementary Information for detail), and further incubated at 37 °C with until the OD at 600 nm reached 0.4. The pre-culture was diluted 10^5 times with PB medium containing 30 µg/mL chloramphenicol so that the initial cell density was approximately 1000 colony forming units/mL. Then a 50 µL aliquot was combined with a 50 µL mixture of apidaecin and IPTG (final concentration of apidaecin was 6.25 µM). As a control, 50 µL IPTG and 50 µL sterilized water were added, respectively. The cells were cultivated in 96-well plates using a microplate shaker (BioShaker M-BR-024 Taitec, Shizuoka, Japan) with shaking at 1200 rpm at 30 °C for 18 h. […] Cell growth in a 96-well plate was optically measured using a microplate reader (iMark Microplate Absorbance Reader, Bio-rad) at a wavelength of 595 nm. The degree of resistance against apidaecin was defined as the OD obtained with the addition of IPTG and apidaecin divided by the OD with the addition of IPTG only.1 Degreeofresistance=ODwithapidaecinandIPTG/ODwithIPTG […]

[3] = tested on: lacZ mRNA transcription in E. coli MG1655; assay: Quantification of lacZ mRNA by real-time reverse transcriptase-PCR; assay type: cell-based, Escherichia coli; conditions: 500 μM and 0.1 mM IPTG; quantitative real-time PCR
Protocol: (§1) The 96-well plate culture was started following Procedure B. After 60 min, 0.1 mM IPTG was added and the plate was incubated for an additional 60 min.
The E. coli strain MG1655 from Procedure C were harvested by centrifugation at 4 °C, and total RNA was extracted using Isogen (Nippongene, Toyama, Japan) according to the manufacturer’s instructions. The reverse transcriptase reaction was performed using PrimeScript RT-PCR Kit (Takara, Tokyo, Japan) based on the provided protocol. The lacZ fragment was amplified using a pair of primers: lacZ_RTf1, […] and lacZ_RTr1, with […] used as the standard. The standard curve was made in the range of 10^−3 to 10^−7 ng DNA/μL. A total of 6 μL reverse transcriptase reaction product was combined with 10 μL TaqMan Gene Expression Master Mix (Applied Biosystems, Foster City, CA, USA), 1 μL lacZ_RTf1, 1 μL lacZ_RTr1, and 2 μL TaqMan probe lacZ_2116, […], which was bound to fluorescein as a reporter and NFQ-MGB as a quencher. The samples were prepared in triplicate and transferred to a MicroAmp Fast Optical 48-well Reaction Plate (Applied Biosystems) and sealed with a MicroAmp Optical 48-well Adhesive Film. The plate was centrifuged at 1,970 g for 10 min at 4 °C. Real-time PCR (qPCR) was performed using the StepOne real-time PCR system (Applied Biosystems). […]

E. coli [4] = assay: Growth of E. coli in 96-well plate culture with antimicrobial agent; assay type: cell-based, Escherichia coli; conditions: 500 μM
Protocol: E. coli were grown on 2 mL LB medium in a test tube containing 10 g/L trypton, 5 g/L Bacto yeast extract, and 10 g/L sodium chloride, with reciprocal shaking at 175 rpm at 30 °C for 14 h. A total of 20 μL culture medium was transferred into 2 mL fresh LB medium and incubated at 30 °C until the OD at 600 nm reached 0.2.
The cells from Procedure A were washed with 2 mL PB medium containing 10 g/L trypton and 9 g/L sodium chloride, and re-suspended in 1 mL PB medium. A total of 80 μL medium was combined with 20 μL antimicrobial agents, followed by incubation in a 96-well plate at 30 °C for 4 h with shaking at 1200 rpm.
(§2) The 96-well plate culture was started as well as Procedure B with a modification that the cells were resuspended in 1 mL PB medium containing 100 μg/ml 5-bromo-4-chloro-3-indolyl-β-D-galactopyranoside (X-gal). After 60 min, 0.1 mM IPTG was added and the plate was further incubated for 120 min. The OD of the culture in the test tube was measured using a UV-VIS spectrophotometer (Genesys20, Thermo Scientific, Waltham, MA, USA) at 600 nm, and OD in the 96-well plate was monitored at 595 nm using an iMark Microplate Absorbance Reader (Biorad, Hercules, CA, USA).

[5] = tested on: peptide chain release factor 1 (PrfA); assay: ARGO assay, apidaecin resistance of PrfA-overexpressing E. coli (ASKA clone); assay type: cell-based, Escherichia coli; conditions: 6.25 μM apidaecin; E. coli JM109 ASKA clone, IPTG-induced; 30 °C, 18 h; OD595; three trials
Protocol: as §4

[6] = tested on: lacZ expression in PURE system (PrfA-dependent termination); assay: Inhibitory assay using the in vitro transcription-translation system (PURE system); assay type: biochemical; conditions: 200 μM apidaecin; for inhibition ratio of lacZ (UAG) expression: PrfB omitted, 37 °C, 3 h, immunoblot
Protocol: The PCR products were purified by agarose gel extraction and used for second PCR to add the T7 promoter sequence using a forward primer 2, […], and aforementioned reverse primers. The amplified DNA was treated with chloroform/phenol/isoamyl alcohol, concentrated by ethanol precipitation, and diluted to 100 ng/μl using RNase free water. The DNA solution was used for in vitro transcription-translation reaction using PUREfrex ver 1.0 (GeneFrontier Corp., Chiba, Japan). The solution I, II, and III provided by the kit protocol was combined with the apidaecin solution to contain 0 to 200 μM apidaecin. […] Ten microliter solution I, 1 μL solution II, 1 μL solution III, 0.1 μL 6 μM T7 RNA polymerase, 0.5 μL 4 or 0.8 μM RF1, 0.5 μL 4 μM RF3, 0.5 μL 40 μM RRF, and 0–4 μL 1 mM apidaecin were combined and diluted to 19 μL with RNAse free water. The mixture was incubated at room temperature for 15 min, and 1 μL template DNA (LacZ [UAG]) was added. Then the mixture was further incubated at 37 °C from 3 h. Then 1 μL reaction mixture was used for immnoblot analysis.

[7] = tested on: β-galactosidase protein synthesis in E. coli MG1655; assay: Immunoblot analysis of native LacZ; assay type: cell-based, Escherichia coli; conditions: 500 μM and 0.1 mM IPTG
Protocol: as §1
(§3) The E. coli strain MG1655 from Procedure C were harvested and suspended in lysis buffer containing 50 mM sodium phosphate (pH 7.0), 10 mM imidazol, and 300 mM NaCl. The OD was normalized using lysis buffer, after which the crude extract was prepared using sonication on ice 5 s × 5 times. Anti-β-galactosidase antibody (Biotin) ab6645 was purchased from abcam (Cambridge, UK) and used at a 10^5-fold dilution. Immun-Star Goat Anti-Rabbit (GAR)-HRP Conjugate (Biorad) was used as the secondary antibody. Bands were detected using the ECL Select Western Blotting Detection Reagent (GE Healthcare, Little Chalfont, UK) and were recorded on ChemiDox XRS (Biorad). Band density was quantified using ImageJ software.

[8] = tested on: lacZ reporter gene expression in E. coli MG1655; assay: Inhibition assay of LacZ expression (X-gal chromogenesis); assay type: cell-based, Escherichia coli; conditions: 500 μM; E. coli treated 1 h, then IPTG; ΔOD595 with and without X-gal; three trials
Protocol: as §2
E. coli MG1655 cells were cultivated using Procedure D. The activity of LacZ was estimated based on the subtraction of ODs at 595 nm obtained with and without supplement of X-gal.

[9] = tested on: lacZ expression in MG1655(lacZ-UAA), MG1655(lacZ-UGA), MG1655(lacZ-UAG); assay: In vivo inhibitory assay of lacZ expression with different stop codons (immunoblot); assay type: cell-based, Escherichia coli; conditions: 250 and 500 μM apidaecin
Protocol: as §3
The C-terminal region of the lacZ gene in E. coli chromosomal DNA was replaced with three DNA fragments containing three stop codons (Fig. S4). The DNA fragments including a flippase recognition target (FRT) cassette with a kanamycin-resistant gene, and the C-terminal sequence of the lacZ gene with three stop codons, were amplified from pKD13 using three forward primers: […], […], and […] (stop codons are underlined), and a reverse primer: […]. The template DNA in the PCR products was removed by DpnI treatment. […] Ampicilline-sensitive colonies were chosen and recombination in their chromosomal DNA was evaluated by colony PCR and sequencing. […]

PrfB = assay: ARGO assay, apidaecin resistance of PrfB-overexpressing E. coli (ASKA clone); assay type: cell-based, Escherichia coli; conditions: 6.25 μM apidaecin; E. coli JM109 ASKA clone, IPTG-induced; 30 °C, 18 h; OD595
Protocol: as §4

E. coli [10] = conditions: relative to wild type apidaecin Ho +; cited from earlier work

Oc1cc(Cl)ccc1Oc1ccc(Cl)cc1Cl [triclosan]
sensitivity of E. coli upon overexpression of FabI [1]: reduced the sensitivity

COc1cc(Cc2cnc(N)nc2N)cc(OC)c1OC [trimethoprim]
sensitivity of E. coli upon overexpression of FolA [2]: reduced the sensitivity

GNNRPVYIPQPRPPHPRL [apidaecin, Apidaecin Ib, proline-rich AMP isolated from the hemolymph of honeybees; purchased from Bex Corp]
influence on lacZ mRNA transcription [3]: no significant influence
inhibition of cell growth (E. coli [4]; PB medium, 96-well plate, 30 °C, OD595, three trials): almost completely inhibited
degree of resistance against apidaecin upon PrfA overexpression (OD with apidaecin and IPTG / OD with IPTG) [5]: up to 80%
inhibition efficiency of lacZ expression by stop codon ([6]; lacZ-UAA, lacZ-UGA, lacZ-UAG templates, UAG stop codon): most efficient inhibition
inhibition ratio of lacZ (UAG) expression ([6]; low PrfA concentration (20 nM PrfA)): 45%
inhibition ratio of lacZ (UAG) expression ([6]; standard PrfA concentration (100 nM PrfA)): 21%
β-galactosidase protein synthesis [7]: considerably diminished
inhibition of β-galactosidase-mediated chromogenesis [8]: almost completely inhibited
expression levels of whole proteins ([9]; SDS-PAGE, all three stop codon constructs): decreased expression levels of whole proteins
degree of inhibition of lacZ expression, UAG stop codon versus other constructs ([9]; immunoblot anti-LacZ, UAG recognized only by PrfA): considerably stronger inhibition
cell growth in the presence of apidaecin upon PrfB overexpression (PrfB): did not promote cell growth

L17D-L mutant of apidaecin Ho + (GKPRPQQVPPRPPHPR[dL])
antibacterial activity toward E. coli compared to wild type peptide (E. coli [10]): 0.1 fold

L18dL apidaecin 1b
antimicrobial effect against E. coli (E. coli [4]; data not shown): no antimicrobial effect
